Experimental data taken from paper PMC4503722, “Novel Phenotypic Outcomes Identified for a Public Collection of Approved Drugs from a Publicly Accessible Panel of Assays” (PLoS ONE, 2015).
Like-named read-outs stand apart in the source and are kept apart here.

Tests used:
HCT116 = test: cells; assay type: cell-based
STC-1 cell line = assay type: cell-based, mouse
SNU-C1 = test: cells; assay type: cell-based
RKO = test: cells; assay type: cell-based
SW480 = test: cells; assay type: cell-based
NCI-H716 cells = test: cells; assay type: cell-based, Human
[1] = system: HCT116 cells treated with a GSK3β inhibitor; test: cells; assay type: cell-based; settings: assay number 26; GSK3b inhibitor pretreated
DLD-1 = test: cells; assay type: cell-based
HeLa cells = test: cells; assay type: cell-based
HT-29 = test: cells; assay type: cell-based
Colo320 = test: cells; assay type: cell-based
[2] = system: ECFC/ADSC co-culture cell nuclei number
[3] = system: endothelial tube formation in co-cultures of ECFCs and ADSCs treated with VEGF; test: cells; assay type: cell-based, human

Question: Which “Basal_Viability ATP HCT116 IC50/EC50” value (HCT116; assay number 25, basal) does the source give for Cl.Oc1ccc([C@H]2CNCc3c2ccc(O)c3O)cc1O [NCGC00183049-01] here?
Answer: Its value is over 20 µM.

Question: And the “mSTC-1 GLP1 Secretion IC50/EC50” value (STC-1 cell line; assay number 13)?
Answer: The value was over 20 µM.

Question: What about the “Basal_Viability ATP SNU-C1 IC50/EC50” value (SNU-C1; assay number 30) of the same compound?
Answer: Its value is over 20 µM.

Question: And the “Basal_Viability ATP RKO IC50/EC50” value (RKO; assay number 29)?
Answer: Its value is 0.03316 µM.

Question: And the “Basal_Viability ATP SW480 IC50/EC50” value (SW480; assay number 24)?
Answer: The value was over 20 µM.

Question: And the “hNCI-H716 GLP1 Secretion IC50/EC50” value (NCI-H716 cells; assay number 12)?
Answer: Its value is 5.9462 µM.

Question: What about the “GSK3b inh pretreated_Viability ATP HCT116 IC50/EC50” value [1] of the same compound?
Answer: The value was 0.1876 µM.

Question: And the “Basal_Viability ATP DLD-1 IC50/EC50” value (DLD-1; assay number 23)?
Answer: Its value is over 20 µM.

Question: What about the “Hela CellCycMod PI 2N IC50/EC50” value (HeLa cells; assay number 14, 2N) of the same compound?
Answer: Its value is over 10 µM.

Question: And the “Hela CellCycMod PI S Phase IC50/EC50” value (HeLa cells; assay number 15, S phase)?
Answer: The value was over 10 µM.

Question: What about the “Hela CellCycMod PI 4N IC50/EC50” value (HeLa cells; assay number 16, 4N) of the same compound?
Answer: Its value is over 10 µM.

Question: And the “Hela CellCycMod PI MI IC50/EC50” value (HeLa cells; assay number 17, MI)?
Answer: The value was over 10 µM.

Question: And the “Hela CellCycMod PI Cell Number IC50/EC50” value (HeLa cells; assay number 18, cell number)?
Answer: The value was over 10 µM.

Question: And the “Basal_Viability ATP HT-29 IC50/EC50” value (HT-29; assay number 28)?
Answer: The value was over 20 µM.

Question: And the “Basal_Viability ATP Colo 320 IC50/EC50” value (Colo320; assay number 27)?
Answer: The value was 0.4662 µM.

Question: C[n+]1cc2c3c(ccc2c2ccc4cc5c(cc4c21)OCO5)OCO3 [NCGC00015959-09] was tested. Which “VEGF_ADSC\ECFC Angio Hoechst NucArea IC50/EC50” value [2] did it give?
Answer: Its value is 0.9705 µM.

Question: What about the “Basal_Viability ATP HCT116 IC50/EC50” value (HCT116) of the same compound?
Answer: The value was 0.5253 µM.

Question: What about the “mSTC-1 GLP1 Secretion IC50/EC50” value (STC-1 cell line) of the same compound?
Answer: Its value is over 40 µM.

Question: What about the “Basal_Viability ATP SNU-C1 IC50/EC50” value (SNU-C1) of the same compound?
Answer: The value was 0.3161 µM.

Question: What about the “Basal_Viability ATP RKO IC50/EC50” value (RKO) of the same compound?
Answer: Its value is 0.2646 µM.

Question: And the “Basal_Viability ATP SW480 IC50/EC50” value (SW480)?
Answer: The value was 0.3789 µM.

Question: What about the “hNCI-H716 GLP1 Secretion IC50/EC50” value (NCI-H716 cells) of the same compound?
Answer: Its value is over 40 µM.

Question: What about the “Basal_Viability ATP DLD-1 IC50/EC50” value (DLD-1) of the same compound?
Answer: The value was 0.5755 µM.

Question: What about the “Basal_Viability ATP Colo 320 IC50/EC50” value (Colo320) of the same compound?
Answer: The value was 0.3498 µM.

Question: What about the “VEGF_ADSC\ECFC Angio CD31 TubeArea IC50/EC50” value [3] of the same compound?
Answer: Its value is 0.5372 µM.

Question: What does the source list for Clc1ccc(C(Cn2ccnc2)OCc2c(Cl)cccc2Cl)c(Cl)c1 (stereo not shown) [NCGC00179642-03]?
Answer: Basal_Viability ATP HCT116 IC50/EC50 (HCT116; assay number 25, basal): 1.5939 µM; mSTC-1 GLP1 Secretion IC50/EC50 (STC-1 cell line; assay number 13): > 40 µM; Basal_Viability ATP SNU-C1 IC50/EC50 (SNU-C1; assay number 30): 0.8861 µM; Basal_Viability ATP RKO IC50/EC50 (RKO; assay number 29): 4.0107 µM; Basal_Viability ATP SW480 IC50/EC50 (SW480; assay number 24): 2.6011 µM; hNCI-H716 GLP1 Secretion IC50/EC50 (NCI-H716 cells; assay number 12): > 40 µM; GSK3b inh pretreated_Viability ATP HCT116 IC50/EC50 [1]: 1.3984 µM; Basal_Viability ATP DLD-1 IC50/EC50 (DLD-1; assay number 23): 2.3554 µM; Basal_Viability ATP HT-29 IC50/EC50 (HT-29; assay number 28): 5.0032 µM; Basal_Viability ATP Colo 320 IC50/EC50 (Colo320; assay number 27): 1.8168 µM

Question: Which “VEGF_ADSC\ECFC Angio Hoechst NucArea IC50/EC50” value [2] does the source give for CCc1oc2ccccc2c1C(=O)c1cc(Br)c(O)c(Br)c1 [NCGC00013895-08] here?
Answer: The value was over 10 µM.

Question: And the “Basal_Viability ATP HCT116 IC50/EC50” value (HCT116)?
Answer: Its value is 1.057 µM.

Question: What about the “mSTC-1 GLP1 Secretion IC50/EC50” value (STC-1 cell line) of the same compound?
Answer: The value was over 40 µM.

Question: And the “Basal_Viability ATP SNU-C1 IC50/EC50” value (SNU-C1)?
Answer: Its value is 0.1053 µM.

Question: What about the “Basal_Viability ATP RKO IC50/EC50” value (RKO) of the same compound?
Answer: Its value is 0.1312 µM.

Question: What about the “Basal_Viability ATP SW480 IC50/EC50” value (SW480) of the same compound?
Answer: Its value is 1.7408 µM.

Question: And the “hNCI-H716 GLP1 Secretion IC50/EC50” value (NCI-H716 cells)?
Answer: The value was over 40 µM.

Question: And the “Basal_Viability ATP DLD-1 IC50/EC50” value (DLD-1)?
Answer: The value was 0.2675 µM.

Question: What about the “Hela CellCycMod PI 2N IC50/EC50” value (HeLa cells) of the same compound?
Answer: The value was over 10 µM.

Question: What about the “Hela CellCycMod PI 4N IC50/EC50” value (HeLa cells) of the same compound?
Answer: Its value is over 10 µM.

Question: What about the “Hela CellCycMod PI Cell Number IC50/EC50” value (HeLa cells) of the same compound?
Answer: Its value is over 10 µM.

Question: And the “Hela CellCycMod PI MI IC50/EC50” value (HeLa cells)?
Answer: Its value is over 10 µM.

Question: And the “Hela CellCycMod PI S Phase IC50/EC50” value (HeLa cells)?
Answer: The value was over 10 µM.

Question: What about the “Basal_Viability ATP HT-29 IC50/EC50” value (HT-29) of the same compound?
Answer: Its value is 1.1416 µM.

Question: What about the “Basal_Viability ATP Colo 320 IC50/EC50” value (Colo320) of the same compound?
Answer: Its value is over 20 µM.

Question: And the “VEGF_ADSC\ECFC Angio CD31 TubeArea IC50/EC50” value [3]?
Answer: The value was over 10 µM.

Question: For O=C(O)C[CH2][Ge](=[O])[O][Ge](=[O])[CH2]CC(=O)O [NCGC00164525-02], which “VEGF_ADSC\ECFC Angio Hoechst NucArea IC50/EC50” value [2] is on record?
Answer: Its value is 0.2606 µM.

Question: And the “mSTC-1 GLP1 Secretion IC50/EC50” value (STC-1 cell line; assay number 13)?
Answer: Its value is 0.7932 µM.

Question: And the “hNCI-H716 GLP1 Secretion IC50/EC50” value (NCI-H716 cells; assay number 12)?
Answer: Its value is 1.5271 µM.

Question: And the “Hela CellCycMod PI 2N IC50/EC50” value (HeLa cells; assay number 14, 2N)?
Answer: Its value is over 10 µM.

Question: What about the “Hela CellCycMod PI S Phase IC50/EC50” value (HeLa cells; assay number 15, S phase) of the same compound?
Answer: Its value is over 10 µM.

Question: What about the “Hela CellCycMod PI 4N IC50/EC50” value (HeLa cells; assay number 16, 4N) of the same compound?
Answer: The value was over 10 µM.

Question: And the “Hela CellCycMod PI MI IC50/EC50” value (HeLa cells; assay number 17, MI)?
Answer: Its value is over 10 µM.

Question: What about the “Hela CellCycMod PI Cell Number IC50/EC50” value (HeLa cells; assay number 18, cell number) of the same compound?
Answer: The value was 0.5034 µM.

Question: And the “VEGF_ADSC\ECFC Angio CD31 TubeArea IC50/EC50” value [3]?
Answer: The value was 0.1546 µM.

Question: How did the “VEGF_ADSC\ECFC Angio Hoechst NucArea IC50/EC50” value [2] turn out when CC[C@H](C)C(=O)O[C@H]1C[C@@H](C)C=C2C=C[C@H](C)[C@H](CC[C@@H]3C[C@@H](O)CC(=O)O3)[C@H]21 [NCGC00023509-13] was run?
Answer: The value was over 10 µM.

Question: What about the “mSTC-1 GLP1 Secretion IC50/EC50” value (STC-1 cell line; assay number 13) of the same compound?
Answer: Its value is over 40 µM.

Question: What about the “hNCI-H716 GLP1 Secretion IC50/EC50” value (NCI-H716 cells; assay number 12) of the same compound?
Answer: The value was 32.895 µM.

Question: And the “Hela CellCycMod PI 2N IC50/EC50” value (HeLa cells; assay number 14, 2N)?
Answer: The value was over 10 µM.

Question: What about the “Hela CellCycMod PI S Phase IC50/EC50” value (HeLa cells; assay number 15, S phase) of the same compound?
Answer: The value was over 10 µM.

Question: And the “Hela CellCycMod PI 4N IC50/EC50” value (HeLa cells; assay number 16, 4N)?
Answer: Its value is over 10 µM.

Question: And the “Hela CellCycMod PI MI IC50/EC50” value (HeLa cells; assay number 17, MI)?
Answer: Its value is over 10 µM.

Question: And the “Hela CellCycMod PI Cell Number IC50/EC50” value (HeLa cells; assay number 18, cell number)?
Answer: Its value is over 10 µM.

Question: And the “VEGF_ADSC\ECFC Angio CD31 TubeArea IC50/EC50” value [3]?
Answer: The value was 3.2658 µM.

Question: Clc1ccc(CO/N=C(\Cn2ccnc2)c2ccc(Cl)cc2Cl)c(Cl)c1.O=[N+]([O-])O [NCGC00177980-03] was tested. Which “VEGF_ADSC\ECFC Angio Hoechst NucArea IC50/EC50” value [2] did it give?
Answer: The value was 8.846 µM.

Question: And the “mSTC-1 GLP1 Secretion IC50/EC50” value (STC-1 cell line; assay number 13)?
Answer: The value was over 40 µM.

Question: And the “hNCI-H716 GLP1 Secretion IC50/EC50” value (NCI-H716 cells; assay number 12)?
Answer: Its value is over 40 µM.

Question: What about the “VEGF_ADSC\ECFC Angio CD31 TubeArea IC50/EC50” value [3] of the same compound?
Answer: Its value is over 10 µM.
